Experiments:
[1] = system: Mycobacterium tuberculosis; experiment: Antitubercular activity against Mycobacterium tuberculosis H37Rv assessed as reduction in microbial growth after 7 to 14 days by broth dilution method; format: functional; details: time 7-14 day
[2] = system: RAW264.7; experiment: Cytotoxicity against mouse RAW264.7 cells assessed as reduction in cell viability up to 24 hrs by MTT assay; format: cell-based; details: RAW264.7, 24 h
[3] = Selectivity index ratio of IC50 for cytotoxicity against mouse RAW264.7 cells to MIC90 for antitubercular activity against Mycobacterium tuberculosis H37Rv; format: toxicity, cell-based; details: read-out: Selectivity Index

O=C(OCC#Cc1cnc2cc(Cl)ccc2n1)c1cccs1
MIC90 [1]: 11.2 µM | IC50 [2]: 11.3 µM | selectivity ratio [3]: 1

O=C(OCC#Cc1cnc2cc([N+](=O)[O-])ccc2n1)c1cccs1
MIC90 [1]: 2.74 µM | IC50 [2]: 19.9 µM | selectivity ratio [3]: 7.24

CC(=O)OCC#Cc1cnc2cc([N+](=O)[O-])ccc2n1
MIC90 [1]: 1.8 µM | IC50 [2]: 13.2 µM | selectivity ratio [3]: 7.3

OCC#Cc1cnc2cc(Cl)ccc2n1
MIC90 [1]: 15.9 µM | IC50 [2]: 35.3 µM | selectivity ratio [3]: 2.22

O=C(OCC#Cc1cnc2ccccc2n1)c1ccccc1
MIC90 [1]: 16.2 µM | IC50 [2]: 55.6 µM | selectivity ratio [3]: 3.4

O=CC#Cc1cnc2ccccc2n1
MIC90 [1]: 4.55 µM | IC50 [2]: 316 µM | selectivity ratio [3]: 69.5

CS(=O)(=O)OCC#Cc1cnc2cc(Cl)ccc2n1
MIC90 [1]: 54.5 µM

CC(=O)OCC#Cc1cnc2cc(Cl)ccc2n1
MIC90 [1]: 16.5 µM | IC50 [2]: 20.2 µM | selectivity ratio [3]: 1.22

O=C(OCC#Cc1cnc2cc([N+](=O)[O-])ccc2n1)c1ccccc1
MIC90 [1]: 93.8 µM | IC50 [2]: 248 µM | selectivity ratio [3]: 2.6

O=C(OCC#Cc1cnc2ccccc2n1)c1cccs1
MIC90 [1]: 27 µM | IC50 [2]: 39 µM | selectivity ratio [3]: 1.44

CC(=O)OCC#Cc1cnc2ccccc2n1
MIC90 [1]: 18.1 µM | IC50 [2]: 47.7 µM | selectivity ratio [3]: 2.64

CS(=O)(=O)OCC#Cc1cnc2ccccc2n1
MIC90 [1]: 6.47 µM | IC50 [2]: 36.8 µM | selectivity ratio [3]: 5.7

O=C(OCC#Cc1cnc2cc(Cl)ccc2n1)c1ccccc1
MIC90 [1]: 57.6 µM | IC50 [2]: 82.3 µM | selectivity ratio [3]: 1.43

O=CC#Cc1cnc2cc(Cl)ccc2n1
MIC90 [1]: 1.13 µM | IC50 [2]: 4.6 µM | selectivity ratio [3]: 4.1

O=[N+]([O-])c1ccc2nc(C#CCO)cnc2c1
MIC90 [1]: 4.26 µM | IC50 [2]: 31.2 µM | selectivity ratio [3]: 7.3

CS(=O)(=O)OCC#Cc1cnc2cc([N+](=O)[O-])ccc2n1
MIC90 [1]: 1.59 µM | IC50 [2]: 13.5 µM | selectivity ratio [3]: 8.5

OCC#Cc1cnc2ccccc2n1
MIC90 [1]: 52.7 µM | IC50 [2]: 43.7 µM | selectivity ratio [3]: 0.83

CO[C@H]1/C=C/O[C@@]2(C)Oc3c(C)c(O)c4c(O)c(c(/C=N/N5CCN(C)CC5)c(O)c4c3C2=O)NC(=O)/C(C)=C\C=C\[C@H](C)[C@H](O)[C@@H](C)[C@@H](O)[C@@H](C)[C@H](OC(C)=O)[C@@H]1C [RIFAMPIN]
MIC90 [1]: 0.01 µM
